The values below come from patent US20040156869A1, “2-substituted quinazolin-4-ylamine analogues” (Neurogen Corporation, priority 2002, published 2004).

SMILES strings stand for the structures.

Chain of human capsaicin receptor (VR1) (Q8NER1 whole entry): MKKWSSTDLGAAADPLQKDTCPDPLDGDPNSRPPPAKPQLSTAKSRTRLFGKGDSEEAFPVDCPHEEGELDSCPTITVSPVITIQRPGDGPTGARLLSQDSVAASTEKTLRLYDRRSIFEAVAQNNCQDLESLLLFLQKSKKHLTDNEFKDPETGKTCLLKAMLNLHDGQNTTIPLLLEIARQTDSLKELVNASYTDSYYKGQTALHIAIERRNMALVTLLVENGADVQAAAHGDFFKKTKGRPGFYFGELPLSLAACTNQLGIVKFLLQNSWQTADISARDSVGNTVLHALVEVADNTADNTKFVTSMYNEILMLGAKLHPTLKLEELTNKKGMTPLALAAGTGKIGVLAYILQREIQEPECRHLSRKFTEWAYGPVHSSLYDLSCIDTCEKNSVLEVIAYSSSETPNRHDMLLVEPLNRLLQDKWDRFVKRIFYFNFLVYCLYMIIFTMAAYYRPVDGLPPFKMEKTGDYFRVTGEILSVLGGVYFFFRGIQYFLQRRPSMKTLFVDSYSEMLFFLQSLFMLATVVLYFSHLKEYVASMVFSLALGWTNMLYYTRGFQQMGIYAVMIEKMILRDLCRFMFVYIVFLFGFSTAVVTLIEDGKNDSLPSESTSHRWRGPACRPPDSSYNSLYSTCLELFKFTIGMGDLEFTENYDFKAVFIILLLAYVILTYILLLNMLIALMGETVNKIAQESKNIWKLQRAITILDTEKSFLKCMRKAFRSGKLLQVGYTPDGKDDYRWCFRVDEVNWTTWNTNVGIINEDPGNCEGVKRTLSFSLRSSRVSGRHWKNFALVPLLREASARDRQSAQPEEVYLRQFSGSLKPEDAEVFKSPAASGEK

This experiment addresses human capsaicin receptor (VR1) (Homo sapiens, UniProt Q8NER1). The experiment is described as follows: Capsaicin receptor binding assay ([3H]RTX competition, VR1-transfected HEK293 membranes).
With `FC(F)(F)c1ccc(Nc2nc(CCN3CCCC4CCCCC43)nc3cc(-c4ncccc4C(F)(F)F)ccc23)cc1` (centres unmarked) [Compound 408, [2-(Octahydro-quinolin-1-ylethyl)-7-(3-trifluoromethyl-pyridin-2-yl)-quinazolin-4-yl]-(4-trifluoromethyl-phenyl)-amine], the Ki – broadly, the dissociation constant of the complex between target and ligand, obtained from inhibition or displacement – was under 1000 nM.

Regarding `CN(C)CCc1nc(Nc2ccc(C(F)(F)F)cc2)c2ccc(-c3ncccc3C(F)(F)F)cc2n1` [Compound 409, [2-Dimethylaminoethyl-7-(3-trifluoromethyl-pyridin-2-yl)-quinazolin-4-yl]-(4-trifluoromethyl-phenyl)-amine], the inhibitory constant (Ki) was under 1000 nM.

As to `C=CCN(C)CCc1nc(Nc2ccc(C(F)(F)F)cc2)c2ccc(-c3ncccc3C(F)(F)F)cc2n1` [Compound 410, [2-[(Allyl-methyl-amino)-ethyl]-7-(3-trifluoromethyl-pyridin-2-yl)-quinazolin-4-yl]-(4-trifluoromethyl-phenyl)-amine], the inhibition constant (Ki) is under 1000 nM.

Regarding `CCN(CC)CCc1nc(Nc2ccc(C(F)(F)F)cc2)c2ccc(-c3ncccc3C(F)(F)F)cc2n1` [Compound 411, [2-Diethylaminoethyl-7-(3-trifluoromethyl-pyridin-2-yl)-quinazolin-4-yl]-(4-trifluoromethyl-phenyl)-amine], the Ki is under 1000 nM.

On to `CCCN(C)CCc1nc(Nc2ccc(C(F)(F)F)cc2)c2ccc(-c3ncccc3C(F)(F)F)cc2n1` [Compound 412, [2-[(Propyl-methyl-amino)-ethyl]-7-(3-trifluoromethyl-pyridin-2-yl)-quinazolin-4-yl]-(4-trifluoromethyl-phenyl)-amine], for which the Ki was under 1000 nM.

In turn, `CCCCN(C)CCc1nc(Nc2ccc(C(F)(F)F)cc2)c2ccc(-c3ncccc3C(F)(F)F)cc2n1` [Compound 413, [2-[(Butyl-methyl-amino)-ethyl]-7-(3-trifluoromethyl-pyridin-2-yl)-quinazolin-4-yl]-(4-trifluoromethyl-phenyl)-amine] gave a Ki of under 1000 nM.

With `CCN(CCc1nc(Nc2ccc(C(F)(F)F)cc2)c2ccc(-c3ncccc3C(F)(F)F)cc2n1)C(C)C` [Compound 414, [2-[(Isopropyl-ethyl-amino)-ethyl]-7-(3-trifluoromethyl-pyridin-2-yl)-quinazolin-4-yl]-(4-trifluoromethyl-phenyl)-amine], the inhibition constant (Ki) was under 1000 nM.

The molecule `C=CCN(CC=C)CCc1nc(Nc2ccc(C(F)(F)F)cc2)c2ccc(-c3ncccc3C(F)(F)F)cc2n1` [Compound 415, [2-Diallylaminoethyl-7-(3-trifluoromethyl-pyridin-2-yl)-quinazolin-4-yl]-(4-trifluoromethyl-phenyl)-amine] returned an inhibition constant Ki of under 1000 nM.

For the molecule `CCCN(CCC)CCc1nc(Nc2ccc(C(F)(F)F)cc2)c2ccc(-c3ncccc3C(F)(F)F)cc2n1` [Compound 416, [2-Dipropylaminoethyl-7-(3-trifluoromethyl-pyridin-2-yl)-quinazolin-4-yl]-(4-trifluoromethyl-phenyl)-amine], the inhibitory constant (Ki) is under 1000 nM.

Turning to `CCCCN(CC)CCc1nc(Nc2ccc(C(F)(F)F)cc2)c2ccc(-c3ncccc3C(F)(F)F)cc2n1` [Compound 417, [2-[(Butyl-ethyl-amino)-ethyl]-7-(3-trifluoromethyl-pyridin-2-yl)-quinazolin-4-yl]-(4-trifluoromethyl-phenyl)-amine], the Ki was under 1000 nM.

Regarding `CCCN(CCc1nc(Nc2ccc(C(F)(F)F)cc2)c2ccc(-c3ncccc3C(F)(F)F)cc2n1)CC1CC1` [Compound 418, [2-[(Cyclopropylmethyl-propyl-amino)-ethyl]-7-(3-trifluoromethyl-pyridin-2-yl)-quinazolin-4-yl]-(4-trifluoromethyl-phenyl)-amine], the Ki was under 1000 nM.

With `CCCCCCN(C)CCc1nc(Nc2ccc(C(F)(F)F)cc2)c2ccc(-c3ncccc3C(F)(F)F)cc2n1` [Compound 419, [2-[(Hexyl-methyl-amino)-ethyl]-7-(3-trifluoromethyl-pyridin-2-yl)-quinazolin-4-yl]-(4-trifluoromethyl-phenyl)-amine], the inhibition constant Ki is under 1000 nM.

In the case of `CCCCN(CCCC)CCc1nc(Nc2ccc(C(F)(F)F)cc2)c2ccc(-c3ncccc3C(F)(F)F)cc2n1` [Compound 420, [2-Dibutylaminoethyl-7-(3-trifluoromethyl-pyridin-2-yl)-quinazolin-4-yl]-(4-trifluoromethyl-phenyl)-amine], the inhibitory constant (Ki) is under 1000 nM.

`CC(C)N(C)CCc1nc(Nc2ccc(C(F)(F)F)cc2)c2ccc(-c3ncccc3C(F)(F)F)cc2n1` [Compound 421, [2-[(Isopropyl-methyl-amino)-ethyl]-7-(3-trifluoromethyl-pyridin-2-yl)-quinazolin-4-yl]-(4-trifluoromethyl-phenyl)-amine]: the Ki was under 1000 nM.

For the molecule `CC1CCCCN1CCc1nc(Nc2ccc(C(F)(F)F)cc2)c2ccc(-c3ncccc3C(F)(F)F)cc2n1` (centres unmarked) [Compound 422, [2-(2-Methyl-piperidin-1-ylethyl)-7-(3-trifluoromethyl-pyridin-2-yl)-quinazolin-4-yl]-(4-trifluoromethyl-phenyl)-amine], the inhibition constant Ki is under 1000 nM.

For `C=C(C)CN(CC)CCc1nc(Nc2ccc(C(F)(F)F)cc2)c2ccc(-c3ncccc3C(F)(F)F)cc2n1` [Compound 423, [2-{2-[Ethyl-(2-methyl-allyl)-amino]-ethyl}-7-(3-trifluoromethyl-pyridin-2-yl)-quinazolin-4-yl]-(4-trifluoromethyl-phenyl)-amine], the Ki was under 1000 nM.

`CN(CCc1nc(Nc2ccc(C(F)(F)F)cc2)c2ccc(-c3ncccc3C(F)(F)F)cc2n1)C1CCCCC1` [Compound 424, [2-[(Cyclohexyl-methyl-amino)-ethyl]-7-(3-trifluoromethyl-pyridin-2-yl)-quinazolin-4-yl]-(4-trifluoromethyl-phenyl)-amine] registered an inhibition constant Ki of under 1000 nM.

For the molecule `CCC1CCCCN1CCc1nc(Nc2ccc(C(F)(F)F)cc2)c2ccc(-c3ncccc3C(F)(F)F)cc2n1` (centres unmarked) [Compound 425, [2-(2-Ethyl-piperidin-1-ylethyl)-7-(3-trifluoromethyl-pyridin-2-yl)-quinazolin-4-yl]-(4-trifluoromethyl-phenyl)-amine], the Ki was under 1000 nM.

For `CCN(CCc1nc(Nc2ccc(C(F)(F)F)cc2)c2ccc(-c3ncccc3C(F)(F)F)cc2n1)C1CCCCC1` [Compound 426, [2-[(Cyclohexyl-ethyl-amino)-ethyl]-7-(3-trifluoromethyl-pyridin-2-yl)-quinazolin-4-yl]-(4-trifluoromethyl-phenyl)-amine], the inhibition constant Ki is under 1000 nM.

`COCCN(CCOC)CCc1nc(Nc2ccc(C(F)(F)F)cc2)c2ccc(-c3ncccc3C(F)(F)F)cc2n1` [Compound 427, [2-{2-[Bis-(2-methoxy-ethyl)-amino]-ethyl}-7-(3-trifluoromethyl-pyridin-2-yl)-quinazolin-4-yl]-(4-trifluoromethyl-phenyl)-amine] yielded a Ki of under 1000 nM.

In turn, `CCCCCN(CCCCC)CCc1nc(Nc2ccc(C(F)(F)F)cc2)c2ccc(-c3ncccc3C(F)(F)F)cc2n1` [Compound 428, [2-Dipentylaminoethyl-7-(3-trifluoromethyl-pyridin-2-yl)-quinazolin-4-yl]-(4-trifluoromethyl-phenyl)-amine] yielded an inhibitory constant (Ki) of under 1000 nM.

In turn, `CCCCCCN(CCCCCC)CCc1nc(Nc2ccc(C(F)(F)F)cc2)c2ccc(-c3ncccc3C(F)(F)F)cc2n1` [Compound 429, [2-Dihexylaminoethyl-7-(3-trifluoromethyl-pyridin-2-yl)-quinazolin-4-yl]-(4-trifluoromethyl-phenyl)-amine] yielded a Ki of under 1000 nM.

Molecule `CC1CC(C)CN(CCc2nc(Nc3ccc(C(F)(F)F)cc3)c3ccc(-c4ncccc4C(F)(F)F)cc3n2)C1` (centres unmarked) [Compound 430, [2-(3,5-Dimethyl-piperidin-1-ylethyl)-7-(3-trifluoromethyl-pyridin-2-yl)-quinazolin-4-yl]-(4-trifluoromethyl-phenyl)-amine] returned an inhibition constant (Ki) of under 1000 nM.

The molecule `CCN1CCCC1CNC(=O)c1nc(Nc2ccc(C(F)(F)F)cc2)c2ccc(-c3ncccc3C(F)(F)F)nc2n1` (centres unmarked) [Compound 431, 4-(4-Trifluoromethyl-phenylamino)-7-(3-trifluoromethyl-pyridin-2-yl)-pyrido[2,3-d]pyrimidine-2-carboxylic acid (1-ethyl-pyrrolidin-2-ylmethyl)-amide] gave a Ki of under 1000 nM.

For the molecule `O=C(NCCCN1CCCC1)c1nc(Nc2ccc(C(F)(F)F)cc2)c2ccc(-c3ncccc3C(F)(F)F)nc2n1` [Compound 432, 4-(4-Trifluoromethyl-phenylamino)-7-(3-trifluoromethyl-pyridin-2-yl)-pyrido[2,3-d]pyrimidine-2-carboxylic acid (3-pyrrolidin-1-yl-propyl)-amide], the Ki was under 1000 nM.

On to `CN1CCN(CCCNC(=O)c2nc(Nc3ccc(C(F)(F)F)cc3)c3ccc(-c4ncccc4C(F)(F)F)nc3n2)CC1` [Compound 433, 4-(4-Trifluoromethyl-phenylamino)-7-(3-trifluoromethyl-pyridin-2-yl)-pyrido[2,3-d]pyrimidine-2-carboxylic acid [3-(4-methyl-piperazin-1-yl)-propyl]-amide], for which the inhibition constant Ki is under 1000 nM.

The molecule `CN(C)CC(C)(C)CNC(=O)c1nc(Nc2ccc(C(F)(F)F)cc2)c2ccc(-c3ncccc3C(F)(F)F)nc2n1` [Compound 434, 4-(4-Trifluoromethyl-phenylamino)-7-(3-trifluoromethyl-pyridin-2-yl)-pyrido[2,3-d]pyrimidine-2-carboxylic acid (3-dimethylamino-2,2-dimethyl-propyl)-amide] returned a Ki of under 1000 nM.

`CN(C)CCNC(=O)c1nc(Nc2ccc(C(F)(F)F)cc2)c2ccc(-c3ncccc3C(F)(F)F)nc2n1` [Compound 435, 4-(4-Trifluoromethyl-phenylamino)-7-(3-trifluoromethyl-pyridin-2-yl)-pyrido[2,3-d]pyrimidine-2-carboxylic acid (2-dimethylamino-ethyl)-amide] gave a Ki of under 1000 nM.

For `CN(C)CCCNC(=O)c1nc(Nc2ccc(C(F)(F)F)cc2)c2ccc(-c3ncccc3C(F)(F)F)nc2n1` [Compound 436, 4-(4-Trifluoromethyl-phenylamino)-7-(3-trifluoromethyl-pyridin-2-yl)-pyrido[2,3-d]pyrimidine-2-carboxylic acid (3-dimethylamino-propyl)-amide], the Ki was under 1000 nM.
